The numbers were not newly measured in patent publication US20040132055A1, “Recombinant chalcomycin polyketide synthase and modifying genes” (priority 2002, published 2004), which cites them from elsewhere.

The conditions of the data set: spectrum, in words.

As for `COC1CC(C)OC(OC2C(C)/C=C/C(=O)OC(C)C(COC3OC(C)C(O)C(OC)C3OC)C3OC3/C=C/C(=O)C(C)(O)CC2C)C1O` (stereo not shown) [Chalcomycin, chalcomycin], the antimicrobial activity result is listed as “broad spectrum of antimicrobial activity”.
